Test results from ChEMBL document CHEMBL3526109 (Drug Metab Dispos, 2011).

Key:
Settings in all cases: in vivo
[1] = Drug excretion in Sprague-Dawley rat urine treated with [14C]brivanib alaninate at 100 mg/kg, po administered as single dose via gavage by HPLC analysis; type: ADME, organism-based
[2] = Drug excretion in Sprague-Dawley rat feces treated with [14C]brivanib alaninate at 100 mg/kg, po administered as single dose via gavage by HPLC analysis; type: ADME, organism-based
[3] = Drug excretion in human urine treated with [14C]brivanib alaninate at 800 mg, po administered as single dose […] by HPLC analysis; type: ADME, organism-based
[4] = Drug excretion in bile duct-cannulated cynomolgus monkey bile treated with [14C]brivanib alaninate at 10 mg/kg, po administered as single dose via gavage by HPLC analysis; type: ADME, organism-based, Macaca fascicularis
[5] = Drug excretion in bile duct-cannulated rat bile treated with [14C]brivanib alaninate at 100 mg/kg, po administered as single dose via gavage by HPLC analysis; type: ADME, organism-based
[6] = Drug excretion in human feces treated with [14C]brivanib alaninate at 800 mg, po administered as single dose […] by HPLC analysis; type: ADME, organism-based
[7] = Drug excretion in cynomolgus monkey urine treated with [14C]brivanib alaninate at 10 mg/kg, po administered as single dose via gavage by HPLC analysis; type: ADME, organism-based, Macaca fascicularis
[8] = Drug excretion in cynomolgus monkey feces treated with [14C]brivanib alaninate at 10 mg/kg, po administered as single dose via gavage by HPLC analysis; type: ADME, organism-based, Macaca fascicularis
Plasma [9] = assay: Drug level in Sprague-Dawley rat plasma assessed as compound formation treated with [14C]brivanib alaninate at 100 mg/kg, po administered as single dose via gavage measured after 6 hrs by HPLC analysis; type: ADME, organism-based
Plasma [10] = assay: Drug level in human plasma assessed as compound formation treated with [14C]brivanib alaninate at 800 mg, po administered as single dose via gavage measured after 8 hrs by HPLC analysis; type: ADME, organism-based
Plasma [11] = assay: Drug level in cynomolgus monkey plasma assessed as compound formation treated with [14C]brivanib alaninate at 10 mg/kg, po administered as single dose via gavage measured after 12 hrs by HPLC analysis; type: ADME, organism-based, Macaca fascicularis
Cynomolgus monkey [12] = assay: Drug uptake in cynomolgus monkey plasma treated with [14C]brivanib alaninate assessed as AUC (0 to 12 hrs) of total radio activity at 10 mg/kg, po administered as single oral dose by HPLC analysis; type: ADME, organism-based, Macaca fascicularis
Homo sapiens [13] = assay: AUC (0 to 12 hrs) human plasma treated with [14C]brivanib alaninate at 800 mg, po administered as single oral dose by HPLC analysis; type: ADME, organism-based
Plasma [14] = assay: Drug level in human plasma assessed as compound formation treated with [14C]brivanib alaninate at 800 mg, po administered as single dose via gavage measured after 12 hrs by HPLC analysis; type: ADME, organism-based
Plasma [15] = assay: Drug level in human plasma assessed as compound formation treated with [14C]brivanib alaninate at 800 mg, po administered as single dose via gavage measured after 4 hrs by HPLC analysis; type: ADME, organism-based
Plasma [16] = assay: Drug level in cynomolgus monkey plasma assessed as compound formation treated with [14C]brivanib alaninate at 10 mg/kg, po administered as single dose via gavage measured after 6 hrs by HPLC analysis; type: ADME, organism-based, Macaca fascicularis
Homo sapiens [17] = assay: Drug uptake in human plasma treated with [14C]brivanib alaninate assessed as AUC (0 to 12 hrs) of total radio activity at 800 mg, po administered as single oral dose by HPLC analysis; type: ADME, organism-based
Plasma [18] = assay: Drug level in Sprague-Dawley rat plasma assessed as compound formation treated with [14C]brivanib alaninate at 100 mg/kg, po administered as single dose via gavage measured after 1 hr by HPLC analysis; type: ADME, organism-based
Rattus norvegicus [19] = assay: AUC (0 to 6 hrs) Sprague-Dawley rat plasma treated with [14C]brivanib alaninate at 100 mg/kg, po administered as single oral dose by HPLC analysis; type: ADME, organism-based
Plasma [20] = assay: Drug level in human plasma assessed as compound formation treated with [14C]brivanib alaninate at 800 mg, po administered as single dose via gavage measured after 1 hr by HPLC analysis; type: ADME, organism-based
Rattus norvegicus [21] = assay: Drug uptake in Sprague-Dawley rat plasma treated with [14C]brivanib alaninate assessed as AUC (0 to 6 hrs) of total radio activity at 100 mg/kg, po administered as single oral dose by HPLC analysis; type: ADME, organism-based
Cynomolgus monkey [22] = assay: AUC (0 to 12 hrs) cynomolgus monkey plasma treated with [14C]brivanib alaninate at 10 mg/kg, po administered as single oral dose by HPLC analysis; type: ADME, organism-based, Macaca fascicularis
Plasma [23] = assay: Drug level in cynomolgus monkey plasma assessed as compound formation treated with [14C]brivanib alaninate at 10 mg/kg, po administered as single dose via gavage measured after 4 hrs by HPLC analysis; type: ADME, organism-based, Macaca fascicularis
Plasma [24] = assay: Drug level in cynomolgus monkey plasma assessed as compound formation treated with [14C]brivanib alaninate at 10 mg/kg, po administered as single dose via gavage measured after 2 hrs by HPLC analysis; type: ADME, organism-based, Macaca fascicularis
Plasma [25] = assay: Drug level in human plasma assessed as compound formation treated with [14C]brivanib alaninate at 800 mg, po administered as single dose via gavage measured after 2 hrs by HPLC analysis; type: ADME, organism-based
Plasma [26] = assay: Drug level in cynomolgus monkey plasma assessed as compound formation treated with [14C]brivanib alaninate at 10 mg/kg, po administered as single dose via gavage measured after 1 hr by HPLC analysis; type: ADME, organism-based, Macaca fascicularis
Plasma [27] = assay: Drug level in Sprague-Dawley rat plasma assessed as compound formation treated with [14C]brivanib alaninate at 100 mg/kg, po administered as single dose via gavage measured after 2 hrs by HPLC analysis; type: ADME, organism-based
[28] = Drug level in Sprague-Dawley rat urine treated with [14C]brivanib alaninate at 100 mg/kg, po administered as single dose via gavage by mass spectrometry; type: ADME, organism-based

| SMILES | Compound recovery [2] | Compound recovery [3] | Compound recovery [4] | Compound recovery [5] | Compound recovery [6] | Compound recovery [7] | Compound recovery [8] | Compound recovery (Plasma [9]) | Compound recovery (Plasma [10]) | Compound recovery (Plasma [11]) | Compound recovery (Plasma [14]) | Compound recovery (Plasma [15]) | Compound recovery (Plasma [16]) | Compound recovery (Plasma [18]) | Compound recovery (Plasma [20]) | Compound recovery (Plasma [23]) | Compound recovery (Plasma [24]) | Compound recovery (Plasma [25]) | Compound recovery (Plasma [26]) | Compound recovery (Plasma [27]) | also measured |
| --- | --- | --- | --- | --- | --- | --- | --- | --- | --- | --- | --- | --- | --- | --- | --- | --- | --- | --- | --- | --- | --- |
| Cc1c(O)cn2ncnc(Oc3ccc4[nH]c(CO)cc4c3F)c12 | 1.5% | metabolite_not_detected | metabolite_not_detected | metabolite_not_detected | metabolite_not_detected | metabolite_not_detected | metabolite_not_detected |  |  |  |  |  |  |  |  |  |  |  |  |  | Compound recovery [1]: 0.4% |
| Cc1c(OS(=O)(=O)O)cn2ncnc(Oc3ccc4[nH]c(C(=O)O)cc4c3F)c12 | metabolite_not_detected | 3.3% | 1.4% | 4% | metabolite_not_detected | 0.3% | metabolite_not_detected | 20% | 23% | 12.5% | 24.3% | 20% | 9.1% | 18.2% | metabolite_not_detected | 4.6% | 3% | 11.3% | 3.3% | 22.1% | Compound recovery [1]: 5.1%; AUC metabolite/AUC radiolabel (Cynomolgus monkey [12]): 6.6%; AUC (Homo sapiens [13]): 9668.9 ugequiv/l.hr; AUC metabolite/AUC radiolabel (Homo sapiens [17]): 14.7%; AUC (Rattus norvegicus [19]): 29545.4 ugequiv/l.hr; AUC metabolite/AUC radiolabel (Rattus norvegicus [21]): 21.1%; AUC (Cynomolgus monkey [22]): 4597.3 ugequiv/l.hr |
| Cc1cc2c(F)c(Oc3ncnn4cc(O[C@@H]5O[C@H](C(=O)O)[C@@H](O)[C@H](O)[C@H]5O)c(C)c34)ccc2[nH]1 | metabolite_not_detected | 0.8% | metabolite_not_detected | 27.4% | metabolite_not_detected | 0.8% | metabolite_not_detected | 9.1% | 2% | metabolite_not_detected | 1.2% | metabolite_not_detected | metabolite_not_detected | 5.1% | 0.8% | metabolite_not_detected | metabolite_not_detected | 3% | metabolite_not_detected | 6.5% |  |
| Cc1c(OS(=O)(=O)O)cn2ncnc(Oc3ccc4[nH]c(CO)cc4c3F)c12 | metabolite_not_detected | metabolite_not_detected | 0.4% | metabolite_not_detected | metabolite_not_detected | metabolite_not_detected | metabolite_not_detected |  |  |  |  |  |  |  |  |  |  |  |  |  | Compound recovery [1]: metabolite_not_detected |
| Cc1c(O)cn2ncnc(Oc3ccc4[nH]c(C(=O)O)cc4c3F)c12 | metabolite_not_detected | metabolite_not_detected | metabolite_not_detected | 1.8% | metabolite_not_detected | metabolite_not_detected | metabolite_not_detected |  |  |  |  |  |  |  |  |  |  |  |  |  | Compound recovery [28]: metabolite_detected |
| Cc1cc2c(F)c(Oc3ncnn4cc(OS(=O)(=O)O)c(C)c34)ccc2[nH]1 | 4.6% | metabolite_not_detected | 1.9% | 25.4% | metabolite_not_detected | 0.7% | metabolite_not_detected | 20.9% | 7.6% | 5.7% | 8.9% | 4.4% | 9.1% | 30.7% | 8.8% | 9.4% | 5.9% | 6.7% | 2.9% | 26.8% | Compound recovery [1]: 2.7%; AUC metabolite/AUC radiolabel (Cynomolgus monkey [12]): 8.1%; AUC (Homo sapiens [13]): 3835.4 ugequiv/l.hr; AUC metabolite/AUC radiolabel (Homo sapiens [17]): 5.8%; AUC (Rattus norvegicus [19]): 37494.4 ugequiv/l.hr; AUC metabolite/AUC radiolabel (Rattus norvegicus [21]): 26.8%; AUC (Cynomolgus monkey [22]): 5622.3 ugequiv/l.hr |
| Cc1cc2c(F)c(Oc3ncnn4cc(O)c(C)c34)ccc2[nH]1 | 42.8% | metabolite_not_detected | 0.4% | 10.8% | metabolite_not_detected | metabolite_not_detected | 1.8% | 1.7% | metabolite_not_detected | metabolite_not_detected | metabolite_not_detected | metabolite_not_detected | metabolite_not_detected | 2.4% | metabolite_not_detected | metabolite_not_detected | metabolite_not_detected | metabolite_not_detected | metabolite_not_detected | 1.9% |  |
| Cc1cc2c(F)c(Oc3ncnn4cc(OCC(=O)O)c(C)c34)ccc2[nH]1 | 1.8% | metabolite_not_detected | metabolite_not_detected | 1.4% | metabolite_not_detected | 0.2% | 0.5% | 6% | metabolite_not_detected | 3.3% | metabolite_not_detected | metabolite_not_detected | 2.6% | 4.7% | metabolite_not_detected | 2.7% | 1.7% | metabolite_not_detected | 0.9% | 6.4% | Compound recovery [28]: metabolite_detected |
